How the values were obtained:
Mouse [1] = assay: Analgesia, Phenylbenzoquinone test (Writing), p.o. (Mouse); format: in vivo; conditions: for ED50: po, Phenylbenzoquinone test; for Analgesia relative to Propoxyphene: footnote (b) to analgesia ED50 p.o.
Procedure: (§1) The in vivo activity of representative compounds of the present invention was determined as set forth in Table I below by administration to mice in pharmaceutically effective amounts.
Analgesia ED50 p.o.(a)(*)
(a) Phenylbenzoquinone test (Writing

[2] = Acute toxicity LD50 i.p. (Mouse); conditions: in vivo, ip
Procedure: as §1

Mouse [3] = assay: Lowered rectal temp. p.o. (Mouse); format: in vivo; conditions: po
Procedure: as §1
Lowered rectal temp. ED50 p.o.(*)

For `COC1O[C@H]2O[C@]3(C)[C@@H](O)C[C@H]([C@H]2C)[C@H]13` (some centres unmarked) [compound 1246], the ED50 (Mouse [1]) was 68 mg/kg, the LD50 [2] was greater than 800 mg/kg and the ED50 (Mouse [3]) was 100 mg/kg.
For `COC1O[C@H]2O[C@]3(C)[C@H](O)C[C@H]([C@H]2C)[C@H]13` (some centres unmarked) [compound 1561], the ED50 (Mouse [1]) was 100 mg/kg, the LD50 [2] was greater than 800 mg/kg and the ED50 (Mouse [3]) was 100 mg/kg.
`C[C@@H]1[C@H]2OC[C@H]3[C@@H]1C[C@H](O)[C@@]3(C)O2` [compound 2422] gave an ED50 (Mouse [1]) of less than 50 mg/kg, an LD50 [2] of 920 mg/kg and an ED50 (Mouse [3]) of 400 mg/kg.
With `C[C@@H]1[C@H]2OC[C@H]3[C@@H]1C[C@@H](O)[C@@]3(C)O2` [compound 2455] the “Analgesia relative to Propoxyphene” value (Mouse [1]) was “≥ Propoxyphene”, the ED50 (Mouse [1]) was less than 10 mg/kg and the LD50 [2] was 406 mg/kg. It also gave an ED50 (Mouse [3]) of 10 mg/kg.
Compound `CC(=O)O[C@H]1C[C@@H]2[C@H](C)[C@H]3OC[C@@H]2[C@]1(C)O3` [compound 2614] has an ED50 (Mouse [1]) of less than 50 mg/kg, an LD50 [2] of 822 mg/kg and an ED50 (Mouse [3]) of 100 mg/kg.
In the case of `C[C@@H]1[C@H]2OC[C@H]3[C@@H]1CC(=O)[C@@]3(C)O2` [compound 2619], the “Analgesia relative to Propoxyphene” value (Mouse [1]) is reported as “≥ Propoxyphene”, the ED50 (Mouse [1]) is reported as less than 10 mg/kg and the LD50 [2] is reported as 1600 mg/kg. It also gave an ED50 (Mouse [3]) of 25 mg/kg.
`CNC(=O)O[C@H]1C[C@@H]2[C@H](C)[C@H]3OC[C@@H]2[C@]1(C)O3` [compound 2624] showed an ED50 (Mouse [1]) of less than 50 mg/kg, an LD50 [2] of 739 mg/kg and an ED50 (Mouse [3]) of 32 mg/kg.
Compound `CNC(=O)O[C@@H]1C[C@@H]2[C@H](C)[C@H]3OC[C@@H]2[C@]1(C)O3` [compound 2648] has an ED50 (Mouse [1]) of less than 10 mg/kg, an LD50 [2] of 800 mg/kg and an ED50 (Mouse [3]) of less than 100 mg/kg.
